According to patent US7049311B1, “Pyrrolbenzodiazepines” (Spirogen Limited, priority 1998, dated 2006):
pIC50: −log10 of the molar value. “And” between values parts separate entries of the source, which are not always exact repeats. Identical values can stand only once.

How the values were obtained:
[1] = tested on: human tumour cells cultivated in hollow fibres implanted in mice; experiment: NCI Hollow Fibre Assay; format: in vivo
From the text: The Biological testing Branch of the Developmental Therapeutics Program of the NCI has adopted a preliminary in vivo screening tool for assessing the potential anticancer activity of compounds identified by the large scale in vitro cell screen. For these assays, human tumour cells are cultivated in polyvinylidene (PVDF) hollow fibres, and a sample of each cell line is implanted into each of two physiologic compartments (intraperitoneal and subcutaneaous) in mice. Each test mouse received a total of 6 fibres (3 intraperitoneally and 3 subcutaneously) representing 3 distinct cancer cell lines. These mice are treated with potential antitumour compounds at each of 2 test doses by the intraperitoneal route using a QD×4 treatment schedule. Vehicle controls consist of 6 mice receiving the compound diluent only. The fibre cultures are collected on the day following the last day of treatment. To assess anticancer effects, the viable cell mass is determined for each of the cell lines using a formazyn dye (MTT) conversion assay. From this, the % T/C can be calculated using the average optical density of compound treated samples divided by the average optical; density of the vehicle controls. In addition, the net increase in cell mass can be determined for each sample, as a sample of fibre cultures are assessed for viable cell mass on the day of implantation into mice. Thus, the cytostatic and cytocidal capacities of the test compound can be assessed.
Generally, each compound is tested against a minimum of 12 human cancer cell lines. This represents a total of 4 experiments since each experiment contains 3 cell lines. The data are reported as % T/C for each of the 2 compound doses against each of the cell lines with separate values calculated for the intraperitoneal and subcutaneous samples.
Compounds are selected for further in vivo testing in standard subcutaneous xenograft models on the basis of several hollow fibre assay criteria. These include: (1) a % T/C of 50 or less in 10 of the 48 possible test combinations (12 cell lines×2 sites×2 Compound doses); (2) activity at a distance (intraperitoneal drug/subcutaneous culture) in a minimum of 4 of the 24 possible combinations; and/or (3) a net cell kill of 1 or more of the cell lines in either implant site. To simplify evaluation, a points system has been adopted which allows rapid evaluation of the activity of a given compound. For this, a value of 2 is assigned for each compound dose which results in a 50% or greater reduction in viable cell mass. The intraperitoneal and subcutaneous samples are scored separately so that criteria (1) and (2) can be evaluated. Compounds with a combined IP+SC score of 20, a SC score of 8 or a net cell kill of one or more cell lines are referred for xenograft testing. […] In addition to these criteria, other factors (e.g. unique structure, mechanism of action) may result in referral of a compound for xenograft testing without the compound meeting these criteria.

[2] = tested on: human CNS tumour SF-295; experiment: NCI human xenograft study; format: in vivo, mice; conditions: 5 doses
Protocol: These are carried out on nucle athymic mice with a disabled immune system. The human tumour tissue to be tested is implanted in their flanks, and whilst the control mouse receives no treatment, the others are subjected to varying doses of the test compound, which is administered intraperitoneally. The results are expressed as the toxicity of the compound, the amount of tumour growth, and the inhibition of growth.
UP2001 (80) was also evaluated against the human CNS tumour SF-295. Athymic nude mice bearing SF-295 were treated at doses of 0.40, 0.27 and 0.18 mg/Kg by injection given intravenously once daily for a total of 5 doses.

[3] = tested on: calf thymus DNA; experiment: DNA helix melting temperature assay; format: binding
Protocol: The first assay, which is described in G. B. Jones, et al., Anti-Cancer Drug Des., 1990, 5, 249, which is incorporated herein by reference, determines the effect of the test compound on the helix melting temperature of DNA. This assay is designed to give an indication of the strength and extent of cross-linking of the DNA strands by the test compound (i.e. a measure of the stabilisation of the DNA upon ligand binding).
The melting temperature was determined for a 1:5 molar ratio of [ligand] [DNA], where the calf thymus DNA concentration is […] in aqueous sodium phosphate buffer (10 mM sodium phosphate+1 mM EDTA, pH 7.00±0.01). For calf thymus DNA at pH 7.00±0.01, the melting temperature is 67.83±0.06° C. (mean value from 30 separate determinations).

[4] = tested on: CH1cisR; experiment: Ovarian carcinoma cytotoxicity assay; format: cell-based; conditions: Homo sapiens, CH1cisR, 96 h, read-out: IC50 CH1cisR
How it was run: (§1)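 Cells attached overnight, then read 96 hours later by sulphorhodamine B staining of TCA-fixed cells, with absorbance at 540 nm. IC50 taken from concentration versus % absorbance relative to untreated wells; cisR lines are cisplatin-resistant.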

[5] = tested on: CH1; experiment: Ovarian carcinoma cytotoxicity assay; format: cell-based; conditions: Homo sapiens, CH1, 96 h, read-out: IC50 CH1
How it was run: as §1

[6] = tested on: SKOV-3; experiment: Ovarian carcinoma cytotoxicity assay; format: cell-based; conditions: Homo sapiens, SK-OV-3, 96 h, read-out: IC50 Skov3
How it was run: as §1

C=C1C[C@H]2C=Nc3cc(OCCCOc4cc5c(cc4OC)C(=O)N4CC(=C)C[C@H]4C=N5)c(OC)cc3C(=O)N2C1 [UP2001 (80)]
Total score ([1]; combined IP+SC score): 54 | IP score ([1]; intraperitoneal fibres, 2 points per dose giving 50% or greater reduction in viable cell mass): 40 | SC score ([1]; subcutaneous fibres, 2 points per dose giving 50% or greater reduction in viable cell mass): 14 | % T/C Low ([2]; 0.18 mg/Kg intravenously once daily): 0% | Toxicity Low ([2]; 0.18 mg/Kg intravenously once daily, mice dying): two and 2/6 | Tumour Free Low ([2]; 0.18 mg/Kg intravenously once daily, surviving mice tumour free on day 27): 3 out of 4 and 3/4 | % T/C Med ([2]; 0.27 mg/Kg intravenously once daily): 0% | Toxicity Med ([2]; 0.27 mg/Kg intravenously once daily, mice dying): 1 and 1/6 | Tumour Free Med ([2]; 0.27 mg/Kg intravenously once daily, surviving mice tumour free on day 27): all the surviving mice were tumour free and 5/5 | % T/C High ([2]; 0.40 mg/Kg intravenously once daily): 0% | Toxicity High ([2]; 0.40 mg/Kg intravenously once daily, mice dying): 2 and 2/6 | Tumour Free High ([2]; 0.40 mg/Kg intravenously once daily, surviving mice tumour free on day 27): all the surviving mice were tumour free and 4/4 | Induced ΔTa after incubation at 37° C. for 0 h ([3]; [PBD]:[DNA] ratio of 1:5, calf thymus DNA, pH 7.00, 0 h): 25.7 °C | Induced ΔTa after incubation at 37° C. for 4 h ([3]; [PBD]:[DNA] ratio of 1:5, calf thymus DNA, pH 7.00, 4 h): 31.9 °C | Induced ΔTa after incubation at 37° C. for 18 h ([3]; [PBD]:[DNA] ratio of 1:5, calf thymus DNA, pH 7.00, 18 h): 33.6 °C | share of stabilising effect provided without prior incubation ([3]; calf thymus DNA melting): 60-80% | fold more effective than DSB-120 (comparative ΔTm curves) ([3]; on a concentration basis): ≥ 10 fold | pIC50 [4]: 9.22 | pIC50 [5]: 9.92 | pIC50 [6]: 8.04
